The record followed here is EP0960190B1, “IMI[…] RESISTANT SUGAR BEET PLANTS” (Michigan State University, priority 1996, dated 1998).

Read-outs that look alike come from different tables or passages of the source.

Assay [1] deals with Rel-1. The assay is described as follows: Shoot culture herbicide resistance (shoot injury and fresh weight on M20 media). The class given is cell-based, Beta vulgaris L. As to conditions: Rel-1 sensitive control, herbicide concentration causing 50% injury to the shoot culture, 3 weeks, read-out: I50. On the procedure: (§1) In step 7, shoot cultures were assessed for herbicide resistance by placing three small, consistently sized shoot cuttings on each plate of M20 media supplemented with logarithmically increasing concentrations of imidazolinone herbicide, sulfonylurea or triazolopyrimidine sulfonanilide ranging from 1 nM to 0.1 mM. 93R30 culture responses were compared to that of shoot cultures of a sensitive control (Rel-1) and a chlorsulfuron resistant, imidazolinone sensitive control (EL-49). Shoot cultures were maintained at 20 µE/m^2 s light intensity at 25°C for 3 weeks. Shoot culture was determined by rating shoot injury and fresh weight 3 weeks after transfer to selective media. Magnitude of herbicide resistance was determined by the ratio of resistant to sensitive I50 values (the herbicide concentration causing 50 percent injury).

Another assay has as its system EL-49. The assay is described as above. The class given is cell-based, Beta vulgaris L. As to conditions: EL-49; for IC50: herbicide concentration causing 50% injury to the shoot culture, 3 weeks, read-out: I50; for R/S: ratio of resistant to sensitive control (Rel-1) I50 values, shoot culture, 30240 min. How it is done: as §1
Assay [2] relates to 93R30B. The description is as above. The class given is cell-based, Beta vulgaris L. The settings on record: for IC50 / R/S: 93R30B; for IC50: herbicide concentration causing 50% injury to the shoot culture, 3 weeks, read-out: I50; for R/S: ratio of resistant to sensitive control (Rel-1) I50 values, shoot culture; for R/S / level of resistance: 30240 min; for level of resistance: 93R30B in shoot culture. On the procedure:
as §1

Another assay deals with Sir-13. The assay can be described thus: Whole plant sugarbeet response to postemergence ALS-inhibiting herbicides. The class given is in vivo, Beta vulgaris L. The settings on record: Sir-13 whole plant, postemergence, relative to Rel-1.
Assay [3] deals with Rel-1. Described as above. The class given is in vivo, Beta vulgaris L. The settings on record: Rel-1 whole plant, herbicide applied postemergence.
The next assay has as its system Sur. Described as above. The class given is in vivo, Beta vulgaris L. As to conditions: Sur whole plant, postemergence, relative to Rel-1.
Assay [4] has as its system 93R30B. The description is as above. The class given is in vivo, Beta vulgaris L. The settings on record: for R/S: 93R30B (SB) whole plant, postemergence, relative to Rel-1.
The test system of another assay is ALS enzyme from Sur. The assay can be described thus: ALS enzyme activity assay in leaf extracts (acetoin colorimetry). The settings on record: Sur single mutant ALS enzyme in vitro. The class given is biochemical, Beta vulgaris L. How it is done:
Standard procedures were utilized to partially purify ALS from rapidly expanding leaves of greenhouse-grown sugar beet plants (Hart, et al. Weed Science 40:378-383 (1992)). Extracts from heterozygous 93R30B F1 plants and Rel-1 S1 seed were assayed for ALS activity in the presence of logarithmically increasing concentrations of imazethapyr. ALS activity was determined from leaf extracts of REL-1 and 93R30B sugarbeet lines. Plants were grown in the greenhouse as described above to the four to six leaf stage. ALS activity from fresh extracts was determined in the presence of imazethapyr and chlorsulfuron at logarithmically increasing concentrations. […]
(§2) ALS activity is measured by adding 0.2 ml of enzyme preparation (diluted 3:1 with resuspension buffer) to 1.3 ml of reaction buffer (25 mM K2HPO4, pH 7.0, 0.625 mM MgCl2, 25 mM sodium pyruvate, 0.625 mM thiamine pyrophosphate, 1.25 µM flavin adenine dinucleotide) and incubated at 35°C for 1 hour. […]
Purchased acetoin was used as a standard for the colorimetric reaction. Acetoin concentrations were determined by measuring the absorption of the reaction solution at 530 nm. […] Protein concentrations of the extracts was determined by the method of Bradford (Anal. Biochem. 72:248-254 (1976)) using bovine serum albumin for the standard curve.

In another assay the test system is ALS enzyme from Sir-13. The description is as above. The class given is biochemical, Beta vulgaris L. The settings on record: Sir-13 single mutant ALS enzyme in vitro.
For the next assay, the system named is ALS extracts from 93R30B. The description is as above. The class given is biochemical, Beta vulgaris L. As to conditions: SB double mutant ALS enzyme in vitro. How it is done:
Standard procedures were utilized to partially purify ALS from rapidly expanding leaves of greenhouse-grown sugar beet plants (Hart, et al. Weed Science 40:378-383 (1992)). Extracts from heterozygous 93R30B F1 plants and Rel-1 S1 seed were assayed for ALS activity in the presence of logarithmically increasing concentrations of imazethapyr. ALS activity was determined from leaf extracts of REL-1 and 93R30B sugarbeet lines. Plants were grown in the greenhouse as described above to the four to six leaf stage. ALS activity from fresh extracts was determined in the presence of imazethapyr and chlorsulfuron at logarithmically increasing concentrations. The methods and procedures used were modified from those outlined by Ray (Plant Physiol. 75:827-831 (1984)) and Shaner, et al. (Plant Physiol. 76:545-546 (1984)). Ten g of sugarbeet leaves were homogenized in 40 ml cold homogenization buffer (0.1 M K2HPO4, pH 7.5, 1 mM sodium pyruvate, 0.5 mM MgCl2, 0.5 mM thiamine pyrophosphate, 10 µM of flavin adenine dinucleotide, 10% by vol glycerol) plus 2.5 g polyvinylpolypyrolidone. The homogenate was filtered through eight layers of cheesecloth and centrifuged at 27,000 g for 20 minutes. The supernatant was removed and brought to 50% saturation with (NH4)2SO4. […]
as §2
Purchased acetoin was used as a standard for the colorimetric reaction. Acetoin concentrations were determined by measuring the absorption of the reaction solution at 530 nm. […] Protein concentrations of the extracts was determined by the method of Bradford (Anal. Biochem. 72:248-254 (1976)) using bovine serum albumin for the standard curve. […]

As for Imazamethabenzmethyl, the IC50 is 800 nM in the assay on Rel-1 [1], 20000 nM with EL-49 and more than 100000 nM with 93R30B [2]. The results for the R/S with EL-49 and with 93R30B [2] were 25X and more than 125X, respectively.
Take `COc1nc(C)nc(NC(=O)NS(=O)(=O)c2ccccc2Cl)n1` [Chlorsulfuron]: the R/S in the assay with Sir-13 is on record as 1 X; with Sur, more than 1000 X; in the assay on Sur (listed as chlorsulfuron) it was more than 1000 X; in the assay with EL-49 it was 10000X; in the assay on 93R30B [2] it was 10000X; with 93R30B [4], 20 X. Further, in the assay on Rel-1 [3], the I50 is 0.07 g ha^-1. The IC50 stood at 2.5 nM in the assay with Rel-1 [1] (Beta vulgaris, 504 h); 25000 nM in the assay on EL-49 (Beta vulgaris, 504 h); 25000 nM in the assay on 93R30B [2] (Beta vulgaris, 504 h). Also, in the assay on 93R30B [2], the level of resistance was 10,000 fold. The “reduction of whole plant resistance of the SB double mutant” value in the assay on 93R30B [4] (SB double mutant compared with Sur single mutant, whole plant) is listed as “more than 50 fold”.
`CC(C)C1(C)N=C(c2nc3ccccc3cc2C(=O)O)NC1=O` (centres unmarked) [Imazaquin]: the IC50 with Rel-1 [1] (Beta vulgaris, 504 h) is 40 nM; with EL-49 (Beta vulgaris, 504 h), 40 nM; in the assay on 93R30B [2] (Beta vulgaris, 504 h), 16000 nM. The R/S came to 1X in the assay on EL-49 and 400X with 93R30B [2].
Take `Cc1ccn2nc(S(=O)(=O)Nc3c(F)cccc3F)nc2n1` [Flumetsulam]: the “resistance of the ALS enzyme” value in the assay with ALS enzyme from Sur was 50 X; in the assay on ALS enzyme from Sir-13, 3 X; in the assay on ALS extracts from 93R30B it was 200 X. The IC50 in the assay on Rel-1 [1] (Beta vulgaris, 504 h) came to 28 nM; in the assay on EL-49 (Beta vulgaris, 504 h) it was 1100 nM; in the assay with 93R30B [2] (Beta vulgaris, 504 h), 1700 nM. Further, the R/S with EL-49 was determined as 40X; in the assay with 93R30B [2], 60X. The level of resistance in the assay on 93R30B [2] is reported as 60 fold.
For the compound `Cc1cc(C)nc(NC(=O)NS(=O)(=O)c2ccccc2C(=O)O)n1` [Sulfometuron], the R/S was 1 X with Sir-13, 23 X in the assay with Sur and 4X in the assay on 93R30B [4]. The same compound came in with an I50 with Rel-1 [3] of 0.2 g ha^-1.
With `COCc1cnc(C2=NC(C)(C(C)C)C(=O)N2)c(C(=O)O)c1` (centres unmarked) [AC299,263], the R/S was 130 X with Sir-13; 4 X with Sur; 3X in the assay on EL-49; 1400X in the assay on 93R30B [2]; more than 250 X in the assay with 93R30B [4]. This compound gave an I50 with Rel-1 [3] of 1.1 g ha^-1. Moreover, the IC50 came out at 30 nM with Rel-1 [1] (Beta vulgaris, 504 h); 70 nM in the assay with EL-49 (Beta vulgaris, 504 h); 40000 nM with 93R30B [2] (Beta vulgaris, 504 h).
